The source of these data is patent US20240158370A1, “CK1 alpha AND DUAL CK1 alpha / GSPT1 DEGRADING COMPOUNDS” (Innovo Therapeutics, Inc., priority 2022, published 2024).

One experiment has as its target GSPT1 (Homo sapiens, UniProt P15170+Q96SW2). Briefly: HiBiT degradation assay, GSPT1, Procedure A. It counts as cell-based. Also on record: HiBit-GSPT1 KI HEK293(LgBit) Cells; host or cells: HEK293(LgBit) knock-in cells. The protocol:
(§1) Compounds were spotted onto Cornin 384-Well, Cell Culture-Treated, Flat-Bottom, Low Flange Microplate (Fisher Scientific, Catalog #07-201-013) using a Tecan D300e digital dispenser. Ten-point dose response curves spanning from 10 μM to 0.005 μM with a 0.1% DMSO tolerance were used.
(§2) Cells were dissociated from tissue 182 cm^2 Tissue Culture Flask (CellTreat Catalog #229351) by washing the cells with PBS (Fisher Scientific Catalog #BP3994) followed by dissociation with Trypsin-EDTA (0.25%) (Thermo Scientific Catalog #25200056). Trysin was neutralized and cells were resuspended with DMEM+10% FBS. Cells were centrifuged for 5 minutes at 1200 RPMs. Cell culture media was aspirated off and cells were resuspended with DMEM+10% FBS. Cell density was determined using a Denovix CellDrop BF cell counter. Cell density was adjusted to 1×10^6 cells/ml. 40 μl of cells was added to compound treated tissue culture plates and incubated for six hours at 37° C. After six hours, cell culture plates were removed from tissue culture incubator and cooled to room temperature. 40 μl of Nano-GloHiBiT Lytic Detection Reagent (Promega, Catalog #N3040) was added to each well. Plates were placed on an orbital shaker (600 rpm) for 20 minutes. Luminescence was measured using an Envsion plate reader (Perkin Elmer). DC50 curves and Ymin were generated using a 4-parameter curve fit with GraphPad Prism software (Prism Corporation).
(§3) Results from the HiBiT assay (DC50 (nM) and Ymin (% remaining)) are shown below. All CK1α data was generated according to Procedure A. GSPT1 data for Examples 1-600, 603-620 and 703-705 was generated according to Procedure A. GSPT1 data for Examples 601, 621-702 and 706-735 was generated according to Procedure B.
In general terms: The HiBiT peptide binds its large partner to form an active luciferase.

The target of the next experiment is T1, CK1α (Homo sapiens, UniProt P48729+Q96SW2).
T1 construct: CSNK1A1-HiBit KI HEK293(LgBit) Cells; host or cells: HEK293(LgBit) knock-in cells
T1 sequence (P48729 whole entry): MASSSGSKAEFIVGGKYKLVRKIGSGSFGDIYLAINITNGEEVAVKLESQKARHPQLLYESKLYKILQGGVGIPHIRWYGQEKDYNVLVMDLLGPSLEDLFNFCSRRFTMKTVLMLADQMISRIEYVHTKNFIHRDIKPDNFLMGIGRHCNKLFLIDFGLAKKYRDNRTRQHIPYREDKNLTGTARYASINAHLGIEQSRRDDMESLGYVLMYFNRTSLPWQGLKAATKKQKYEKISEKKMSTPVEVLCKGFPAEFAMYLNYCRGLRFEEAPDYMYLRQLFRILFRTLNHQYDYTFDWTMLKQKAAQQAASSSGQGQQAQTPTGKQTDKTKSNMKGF
T1 sequence (Q96SW2 whole entry): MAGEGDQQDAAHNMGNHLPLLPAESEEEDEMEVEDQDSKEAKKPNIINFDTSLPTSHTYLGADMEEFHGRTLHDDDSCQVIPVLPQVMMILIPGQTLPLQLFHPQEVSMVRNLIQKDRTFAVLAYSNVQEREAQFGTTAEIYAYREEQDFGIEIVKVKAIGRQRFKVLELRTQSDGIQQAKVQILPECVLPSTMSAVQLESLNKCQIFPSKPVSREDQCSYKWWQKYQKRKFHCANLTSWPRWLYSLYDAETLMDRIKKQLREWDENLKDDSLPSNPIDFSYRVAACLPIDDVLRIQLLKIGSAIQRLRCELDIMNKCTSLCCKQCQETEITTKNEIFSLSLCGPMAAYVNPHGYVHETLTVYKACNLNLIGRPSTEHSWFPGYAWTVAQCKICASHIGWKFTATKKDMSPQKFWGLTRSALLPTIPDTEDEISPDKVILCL
T1 sequence (Q16531 whole entry partner): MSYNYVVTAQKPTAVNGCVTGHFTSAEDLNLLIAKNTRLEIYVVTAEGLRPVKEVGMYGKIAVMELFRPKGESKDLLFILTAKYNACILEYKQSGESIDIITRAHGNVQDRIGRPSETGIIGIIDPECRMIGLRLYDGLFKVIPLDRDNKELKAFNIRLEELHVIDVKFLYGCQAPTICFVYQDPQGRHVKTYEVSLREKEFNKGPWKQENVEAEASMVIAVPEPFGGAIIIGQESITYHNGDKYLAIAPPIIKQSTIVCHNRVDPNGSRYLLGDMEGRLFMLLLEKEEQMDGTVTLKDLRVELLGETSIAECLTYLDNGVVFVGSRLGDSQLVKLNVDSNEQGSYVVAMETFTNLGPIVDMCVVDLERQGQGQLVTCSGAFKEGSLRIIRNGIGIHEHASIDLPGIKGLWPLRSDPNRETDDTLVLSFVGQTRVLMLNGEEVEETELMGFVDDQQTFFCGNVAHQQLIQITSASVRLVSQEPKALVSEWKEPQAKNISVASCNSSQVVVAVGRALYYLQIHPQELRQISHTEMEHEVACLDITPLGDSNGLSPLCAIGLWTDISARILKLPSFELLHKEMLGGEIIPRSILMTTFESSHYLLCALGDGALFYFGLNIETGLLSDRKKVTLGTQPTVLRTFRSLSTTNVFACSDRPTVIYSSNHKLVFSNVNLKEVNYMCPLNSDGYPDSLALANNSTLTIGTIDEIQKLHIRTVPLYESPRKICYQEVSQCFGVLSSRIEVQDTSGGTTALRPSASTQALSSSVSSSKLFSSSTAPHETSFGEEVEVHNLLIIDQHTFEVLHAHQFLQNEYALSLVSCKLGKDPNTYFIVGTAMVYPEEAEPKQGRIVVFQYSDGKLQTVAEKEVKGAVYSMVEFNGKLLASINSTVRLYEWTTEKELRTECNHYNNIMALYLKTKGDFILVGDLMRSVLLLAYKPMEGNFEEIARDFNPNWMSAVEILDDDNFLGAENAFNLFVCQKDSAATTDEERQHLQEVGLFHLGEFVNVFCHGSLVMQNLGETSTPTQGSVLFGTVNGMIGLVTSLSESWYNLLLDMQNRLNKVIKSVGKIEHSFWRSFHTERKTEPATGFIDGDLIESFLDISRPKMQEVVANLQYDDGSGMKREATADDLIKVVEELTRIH
The experiment is described as follows: HiBiT degradation assay, CK1α, Procedure A. It counts as cell-based. On the procedure: as §1, §2, §3

Sequence of GSPT1 (P15170 whole entry): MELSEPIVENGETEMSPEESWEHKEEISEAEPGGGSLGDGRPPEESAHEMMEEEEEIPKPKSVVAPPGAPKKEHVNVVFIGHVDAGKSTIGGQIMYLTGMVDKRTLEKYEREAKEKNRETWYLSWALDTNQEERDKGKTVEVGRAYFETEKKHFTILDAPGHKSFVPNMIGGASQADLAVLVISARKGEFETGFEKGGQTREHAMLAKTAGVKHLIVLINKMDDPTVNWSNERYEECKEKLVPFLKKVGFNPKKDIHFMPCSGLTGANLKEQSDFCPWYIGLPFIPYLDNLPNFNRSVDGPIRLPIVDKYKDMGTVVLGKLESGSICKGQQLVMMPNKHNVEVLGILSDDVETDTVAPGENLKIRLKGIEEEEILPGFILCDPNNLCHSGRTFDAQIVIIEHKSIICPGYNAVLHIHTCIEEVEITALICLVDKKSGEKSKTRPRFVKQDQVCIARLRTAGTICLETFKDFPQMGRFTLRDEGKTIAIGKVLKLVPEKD
Sequence of GSPT1 (Q96SW2 whole entry): as the sequence (Q96SW2 whole entry) above
Sequence of GSPT1 (Q16531 whole entry partner): as the sequence (Q16531 whole entry partner) above

As for `O=C1CCC(N2Cc3cc(-c4c[nH]nc4C4CC4)ccc3C2=O)C(=O)N1` (stereo not drawn) [Example 47, 3-(5-(3-Cyclopropyl-1H-pyrazol-4-yl)-1-oxoisoindolin-2-yl)piperidine-2,6-dione], on GSPT1 (six hours incubation), the DC50 – broadly, the concentration giving 50% degradation – was at least 25 nM and the “GSPT1 Ymin” value was “F (F = >75-100% remaining)”. In addition, at CK1α (six hours incubation), the “CK1α Ymin” value is “E (E = >25-75% remaining)” and the DC50 was at least 25 nM.
In the case of `Cc1csc(-c2c(-c3ccc4c(c3)CN(C3CCC(=O)NC3=O)C4=O)ncn2C)c1` (stereo not drawn) [Example 230], on GSPT1 (six hours incubation), the DC50 was under 25 nM and the “GSPT1 Ymin” value is listed as “E (E = >25-75% remaining)”. Further, at CK1α (six hours incubation), the “CK1α Ymin” value is given as “C (C = 0-10% remaining)” and the DC50 is under 25 nM.
Turning to `Cc1c(-c2c(-c3ccc4c(c3)CN(C3CCC(=O)NC3=O)C4=O)cnn2C)cnn1C` (stereo not drawn) [Example 372], at GSPT1 (six hours incubation), the DC50 is at least 25 nM and the “GSPT1 Ymin” value is “F (F = >75-100% remaining)”. At CK1α (six hours incubation), the “CK1α Ymin” value was “E (E = >25-75% remaining)” and the DC50 is at least 25 nM.
As to `[2H]C([2H])([2H])n1ncc(-c2ccc3c(c2)CN(C2CCC(=O)NC2=O)C3=O)c1-c1ccc(OC)c(F)c1` (stereo not drawn) [Example 431, 3-(5-(5-(3-fluoro-4-methoxyphenyl)-1-(methyl-d3)-1H-pyrazol-4-yl)-1-oxoisoindolin-2-yl)piperidine-2,6-dione], at GSPT1 (six hours), the half-maximal degradation concentration (DC50) was at least 25 nM and the “GSPT1 Ymin” value was “F (F = >75-100% remaining)”. Also, at CK1α (six hours), the “CK1α Ymin” value is listed as “C (C = 0-10% remaining)” and the DC50 is under 25 nM.
Turning to `Cn1ncc(-c2ccc3c(c2)CN(C2CCC(=O)NC2=O)C3=O)c1-c1cccnc1N` (stereo not drawn) [Example 453], on GSPT1 (six hours), the DC50 is at least 25 nM and the “GSPT1 Ymin” value was “F (F = >75-100% remaining)”. In addition, at CK1α (six hours), the “CK1α Ymin” value was “E (E = >25-75% remaining)” and the DC50 was under 25 nM.
Turning to `Cc1ccc(-c2nc(-c3ccc4c(c3)CN(C3CCC(=O)NC3=O)C4=O)cn2C)cc1` (stereo not drawn) [Example 568], on GSPT1 (six hours), the DC50 is under 25 nM and the “GSPT1 Ymin” value is listed as “F (F = >75-100% remaining)”. For the same molecule, at CK1α (six hours), the “CK1α Ymin” value is reported as “C (C = 0-10% remaining)” and the DC50 was under 25 nM.
Turning to `Cc1ccc(-c2c(-c3ccc4c(c3)CN(C3CCC(=O)NC3=O)C4=O)cnn2C)c(C)c1` (stereo not drawn) [Example 83], at GSPT1 (six hours incubation), the DC50 was at least 25 nM and the “GSPT1 Ymin” value is recorded as “F (F = >75-100% remaining)”. Further, at CK1α (six hours incubation), the “CK1α Ymin” value is listed as “E (E = >25-75% remaining)” and the DC50 is under 25 nM.
Consider `Cn1cnc(-c2ccc3c(c2)CN(C2CCC(=O)NC2=O)C3=O)c1-c1ccc2ccccc2c1` (stereo not drawn) [Example 256], for which, at GSPT1 (six hours incubation), the DC50 was under 25 nM and the “GSPT1 Ymin” value was “E (E = >25-75% remaining)”. Besides, on CK1α (six hours incubation), the “CK1α Ymin” value is reported as “C (C = 0-10% remaining)” and the DC50 was under 25 nM.
In the case of `COc1cccc(COc2cccc(-c3c(-c4ccc5c(c4)CN(C4CCC(=O)NC4=O)C5=O)ncn3C)c2)c1` (stereo not drawn) [Example 303], on GSPT1 (six hours incubation), the DC50 was at least 25 nM and the “GSPT1 Ymin” value was “F (F = >75-100% remaining)”. In addition, at CK1α (six hours incubation), the “CK1α Ymin” value is “E (E = >25-75% remaining)” and the DC50 was under 25 nM.
For `Cn1cnc(-c2ccc3c(c2)CN(C2CCC(=O)NC2=O)C3=O)c1-c1ccc2sccc2c1` (stereo not drawn) [Example 515], at GSPT1 (six hours), the DC50 was under 25 nM and the “GSPT1 Ymin” value is “E (E = >25-75% remaining)”. Further, at CK1α (six hours), the “CK1α Ymin” value is on record as “C (C = 0-10% remaining)” and the DC50 was under 25 nM.
Take `CN1CCN(c2ccc(-c3c(-c4ccc5c(c4)CN(C4CCC(=O)NC4=O)C5=O)cnn3C)cc2)CC1` (stereo not drawn) [Example 217]: on GSPT1 (six hours incubation), the 50% degradation concentration (DC50) was at least 25 nM and the “GSPT1 Ymin” value is “F (F = >75-100% remaining)”. Further, at CK1α (six hours incubation), the “CK1α Ymin” value was “D (D = >10- 25% remaining)” and the DC50 was under 25 nM.
For `O=C1CCC(N2Cc3cc(-c4cscc4-c4ccccc4)ccc3C2=O)C(=O)N1` (stereo not drawn) [Example 4, 3-(1-Oxo-5-(4-phenylthiophen-3-yl)isoindolin-2-yl)piperidine-2,6-dione], in that order: at least 25 nM, “F (F = >75-100% remaining)”, “E (E = >25-75% remaining)” and at least 25 nM.
In the case of `Cn1c(C2CCOCC2)nc(-c2ccc3c(c2)CN(C2CCC(=O)NC2=O)C3=O)c1-c1cncnc1` (stereo not drawn) [Example 535, 3-(5-(1-methyl-5-(pyrimidin-5-yl)-2-(tetrahydro-2H-pyran-4-yl)-1H-imidazol-4-yl)-1-oxoisoindolin-2-yl)piperidine-2,6-dione], at GSPT1 (six hours), the DC50 was at least 25 nM and the “GSPT1 Ymin” value is listed as “F (F = >75-100% remaining)”. On CK1α (six hours), the “CK1α Ymin” value was “D (D = >10- 25% remaining)” and the DC50 is at least 25 nM.
For `Cn1cnc(-c2ccc3c(c2)CN(C2CCC(=O)NC2=O)C3=O)c1-c1ccc2occc2c1` (stereo not drawn) [Example 489], on GSPT1 (six hours), the DC50 was under 25 nM and the “GSPT1 Ymin” value was “E (E = >25-75% remaining)”. In addition, on CK1α (six hours), the “CK1α Ymin” value was “C (C = 0-10% remaining)” and the DC50 was under 25 nM.
With `Cn1cc(-c2ccc3c(c2)CN(C2CCC(=O)NC2=O)C3=O)nc1C1CCC(F)(F)CC1` (stereo not drawn) [Example 545, 3-(5-(2-(4,4-difluorocyclohexyl)-1-methyl-1H-imidazol-4-yl)-1-oxoisoindolin-2-yl)piperidine-2,6-dione], at GSPT1 (six hours), the DC50 is at least 25 nM and the “GSPT1 Ymin” value is reported as “F (F = >75-100% remaining)”. In addition, at CK1α (six hours), the “CK1α Ymin” value is listed as “D (D = >10- 25% remaining)” and the DC50 is under 25 nM.
For `Cn1cnc(-c2ccc3c(c2)CN(C2CCC(=O)NC2=O)C3=O)c1-c1ccccc1N` (stereo not drawn) [Example 440], in that order: under 25 nM, “E (E = >25-75% remaining)”, “C (C = 0-10% remaining)” and under 25 nM.
As for `Cn1ncc(-c2ccc3c(c2)CN(C2CCC(=O)NC2=O)C3=O)c1-c1ccc(C(=O)NC2CCCC2)cc1` (stereo not drawn) [Example 98], at GSPT1 (six hours incubation), the DC50 was at least 25 nM and the “GSPT1 Ymin” value was “F (F = >75-100% remaining)”. Besides, at CK1α (six hours incubation), the “CK1α Ymin” value is “E (E = >25-75% remaining)” and the DC50 was at least 25 nM.
On to `Cn1cnc(-c2ccc3c(c2)CN(C2CCC(=O)NC2=O)C3=O)c1-c1ccc(C(=O)Nc2ccccn2)cc1` (stereo not drawn) [Example 447], for which, at GSPT1 (six hours), the DC50 is at least 25 nM and the “GSPT1 Ymin” value is listed as “F (F = >75-100% remaining)”. For the same molecule, on CK1α (six hours), the “CK1α Ymin” value is reported as “D (D = >10- 25% remaining)” and the DC50 was at least 25 nM.
On to `O=C1CCC(N2Cc3cc(-c4cc(-c5ccccc5)n(C(F)F)n4)ccc3C2=O)C(=O)N1` (stereo not drawn) [Example 337, 3-(5-(1-(difluoromethyl)-5-phenyl-1H-pyrazol-3-yl)-1-oxoisoindolin-2-yl)piperidine-2,6-dione], for which, at GSPT1 (six hours incubation), the DC50 is at least 25 nM and the “GSPT1 Ymin” value is on record as “F (F = >75-100% remaining)”. At CK1α (six hours incubation), the “CK1α Ymin” value is listed as “D (D = >10- 25% remaining)” and the DC50 is at least 25 nM.
For `Cn1cnc(-c2ccc3c(c2)CN(C2CCC(=O)NC2=O)C3=O)c1-c1cncc(OCc2ccccc2)c1` (stereo not drawn) [Example 405], on GSPT1 (six hours), the DC50 was under 25 nM and the “GSPT1 Ymin” value is “F (F = >75-100% remaining)”. On CK1α (six hours), the “CK1α Ymin” value is listed as “F (F = >75-100% remaining)” and the DC50 is under 25 nM.
Take `Cn1ncc(-c2ccc3c(c2)CN(C2CCC(=O)NC2=O)C3=O)c1-c1ccc(N)nc1` (stereo not drawn) [Example 370]: the DC50 on GSPT1 (six hours incubation) and on CK1α (six hours incubation) was at least 25 nM in each case. On CK1α (six hours incubation), the “CK1α Ymin” value is given as “E (E = >25-75% remaining)”.
Take `Cc1ccc(-c2nc(-c3ccc4c(c3)CN(C3CCC(=O)NC3=O)C4=O)cn2C)cc1C` (stereo not drawn) [Example 566]: on GSPT1 (six hours), the DC50 was at least 25 nM and the “GSPT1 Ymin” value is “E (E = >25-75% remaining)”. Moreover, at CK1α (six hours), the “CK1α Ymin” value is recorded as “C (C = 0-10% remaining)” and the DC50 was under 25 nM.
On the same counts, the results for `Cn1nc(-c2ccc3c(c2)CN(C2CCC(=O)NC2=O)C3=O)nc1[C@H]1CC[C@H](C)CC1` (stereo partly drawn) [Example 616, 3-(5-(1-methyl-5-((1r,4r)-4-methylcyclohexyl)-1H-1,2,4-triazol-3-yl)-1-oxoisoindolin-2-yl)piperidine-2,6-dione] are at least 25 nM, “F (F = >75-100% remaining)”, “E (E = >25-75% remaining)” and at least 25 nM.
`Cn1nc(-c2ccc3c(c2)CN(C2CCC(=O)NC2=O)C3=O)cc1-c1ccc(C(F)(F)F)cc1` (stereo not drawn) [Example 495, 3-(5-(1-methyl-5-(4-(trifluoromethyl)phenyl)-1H-pyrazol-3-yl)-1-oxoisoindolin-2-yl)piperidine-2,6-dione]: at CK1α (six hours), the “CK1α Ymin” value is given as “C (C = 0-10% remaining)” and the DC50 is under 25 nM.
